Patent publication US20070166367A1, “Adept or gdept producing acetaldehyde” (priority 2004, published 2007)
Where two headings read alike, the source gives them in different places.

Tests used:
[1] = in vitro acetaldehyde toxicity assay; format: cell-based; settings: human, Jurkat cells; higher concentrations (500 uM and 1 mM), day 3, FIG. 1; read-out: viable cell numbers as % of starting number
Method: (§1) Standard tissue culture techniques were used to maintain Hela, Daudi, Jurkat, CMT-64 cells in flasks in DMEM+10% FCS in a 37° C. incubator.
(§2) Cell lines subcloned into 25-cm^2 flasks and incubated in media containing dilutions of acetaldehyde, cisplatin or both. Flasks remained sealed during incubation and the media and acetaldehyde/cisplatin were replaced daily. Viable cell counts were made using Trypan blue exclusion and a standard haemocytometer.

Hela = experiment: in vitro acetaldehyde toxicity assay; format: cell-based; settings: 250 uM acetaldehyde
Method: as §1, §2

Jurkat = experiment: in vitro acetaldehyde toxicity assay; format: cell-based
Method: as §1, §2

[2] = cited from earlier work
[3] = during alcohol metabolism; cited from earlier work
DNA = settings: cited from earlier work
[4] = ethanol IP 3 g/kg, +30 minutes, cited from earlier work
[5] = tissue culture at 37° C., cited from earlier work
Human Fibroblasts = settings: 5 hr exposure, cited from earlier work
Human Lymphocytes = settings: cited from earlier work
[6] = acetaldehyde in breath and blood after ethanol consumption; format: in vivo; settings: suggested from breath values and partition coefficient
[7] = in vitro acetaldehyde and cisplatin toxicity assay; format: cell-based; settings: human, Daudi cells; higher concentrations (500 uM and 1 mM), day 3, FIG. 1; read-out: viable cell numbers as % of starting number
Method: as §1, §2

CMT-64 = experiment: in vitro acetaldehyde and cisplatin toxicity assay; format: cell-based
Method: as §1, §2

Daudi = experiment: in vitro acetaldehyde and cisplatin toxicity assay; format: cell-based
Method: as §1, §2

[8] = target: T1, Acetaldehyde dehydrogenase 2 (ALDH2) (Homo sapiens, UniProt P05091); settings: cited from earlier work
T1 sequence (P05091 18-517): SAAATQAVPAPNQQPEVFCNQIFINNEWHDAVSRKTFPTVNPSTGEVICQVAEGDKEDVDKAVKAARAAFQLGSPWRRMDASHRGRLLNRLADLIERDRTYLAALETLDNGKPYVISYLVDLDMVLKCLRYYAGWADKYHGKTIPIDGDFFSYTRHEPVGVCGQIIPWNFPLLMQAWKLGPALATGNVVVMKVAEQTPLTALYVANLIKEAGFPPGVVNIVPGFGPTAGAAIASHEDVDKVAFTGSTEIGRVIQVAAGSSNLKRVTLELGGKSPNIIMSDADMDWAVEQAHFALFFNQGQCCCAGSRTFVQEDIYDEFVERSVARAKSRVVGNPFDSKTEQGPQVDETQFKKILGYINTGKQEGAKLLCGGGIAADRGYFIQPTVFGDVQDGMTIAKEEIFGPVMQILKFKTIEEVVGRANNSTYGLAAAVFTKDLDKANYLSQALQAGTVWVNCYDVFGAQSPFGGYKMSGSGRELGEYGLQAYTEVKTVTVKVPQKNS

Daudi lymphoma cells = experiment: chronic exposure of Daudi lymphoma cells to acetaldehyde in tissue culture; format: cell-based
Method: The effect of acetaldehyde on Daudi lymphoma cells was investigated. Chronic exposure to acetaldehyde of Daudi lymphoma cells in tissue culture was investigated with the media and acetaldehyde replaced every 24 hours, with the lids either tight closed or slightly open (the norm for tissue culture).
B. Repeat method as above changing media and replacing acetaldehyde every 24 hours.
Results are shown as the number of cells×10^4 remaining viable at each time point. (Days 0-6)

## CC=O [acetaldehyde]
[1]
  viability at 3 days: 7%
Hela
  effect on proliferation: reduction in the rate of proliferation
Jurkat; 250 uM acetaldehyde
  effect on proliferation: reduction in the rate of proliferation
Jurkat; day 4, FIG. 1
  viable cells: no Jurkat cells viable
[2]; after ethanol consumption, different patient groups
  concentrations of acetaldehyde in the breath: 0.005 to 1.3 µM
[2]; volunteers consuming alcohol with an hepatic ALDH inhibitor
  systemic concentrations of acetaldehyde: up to 240 uM
[3]
  levels in the liver: ~100 µM
DNA
  concentration that is toxic and produces irreparable DNA damage: 1.56 mM
[4]; ADH overexpressing heart
  acetaldehyde levels: 70 µM
[4]; control heart
  acetaldehyde levels: 15 µM
[5]
  ½ life: about 30 minutes
[5]; listed as Acetaldehyde
  ½ life: 30 min
Human Fibroblasts; 1 mM
  % survival: 75%
Human Fibroblasts; 2 mM
  % survival: 55%
Human Lymphocytes; 90 μM
  Number of metaphases (cell divisions) counted: 200
Human Lymphocytes; 180 μM
  Number of metaphases (cell divisions) counted: 200
Human Lymphocytes; 360 μM
  Number of metaphases (cell divisions) counted: 200
Human Lymphocytes; 720 μM
  Number of metaphases (cell divisions) counted: 130
Human Lymphocytes; 1080 μM
  Number of metaphases (cell divisions) counted: 23
Human Lymphocytes; 1440 μM
  Number of metaphases (cell divisions) counted: 0 and no growth
[6]
  blood values: 1 to 260 µM
[7]
  viability at 3 days: 37%
CMT-64
  concentrations at which significant growth inhibition occurred: over 500 uM
CMT-64; 250 uM acetaldehyde
  effect on proliferation: reduction in the rate of proliferation
CMT-64; FIG. 2
  cell number as % of starting number: 170%
Daudi; 250 uM acetaldehyde
  effect on proliferation: reduction in the rate of proliferation
Daudi; higher cell density, 3 days exposure, FIG. 2
  cell number as % of starting number: 67%
[8]
  Km: 3.5 µM
Daudi lymphoma cells; 100 μM closed, 4S hr
  Numbers of viable cells: 280000 mL⁻¹
Daudi lymphoma cells; 100 μM closed, 22 hr
  Numbers of viable cells: 230000 mL⁻¹
Daudi lymphoma cells; 100 μM closed, 68 hr
  Numbers of viable cells: 370000 mL⁻¹
Daudi lymphoma cells; 100 μM open, 22 hr
  Numbers of viable cells: 260000 mL⁻¹
Daudi lymphoma cells; 100 μM open, 68 hr
  Numbers of viable cells: 510000 mL⁻¹
Daudi lymphoma cells; 100 μM, 6 days exposure
  cell killing: high levels of cell death
Daudi lymphoma cells; 100 μM, by 68 hours
  cell killing: no cell death but some inhibition of the rate of growth
Daudi lymphoma cells; 100 μM, day 1
  number of cells remaining viable: 25 ×10^4
Daudi lymphoma cells; 100 μM, day 2
  number of cells remaining viable: 28 ×10^4
Daudi lymphoma cells; 100 μM, day 3
  number of cells remaining viable: 32 ×10^4
Daudi lymphoma cells; 100 μM, day 4
  number of cells remaining viable: 26 ×10^4
Daudi lymphoma cells; 100 μM, day 5
  number of cells remaining viable: 19 ×10^4
Daudi lymphoma cells; 100 μM, day 6
  number of cells remaining viable: 2 (two) ×10^4
Daudi lymphoma cells; 250 μM, day 1
  number of cells remaining viable: 31 ×10^4
Daudi lymphoma cells; 250 μM, day 2
  number of cells remaining viable: 25 ×10^4
Daudi lymphoma cells; 250 μM, day 3
  number of cells remaining viable: 14 ×10^4
Daudi lymphoma cells; 250 μM, day 4
  number of cells remaining viable: 13 ×10^4
Daudi lymphoma cells; 250 μM, day 5
  number of cells remaining viable: 0 ×10^4
Daudi lymphoma cells; 500 μM and above, 3-4 days exposure
  cell killing: high levels of cell death
Daudi lymphoma cells; 500 μM closed, 4S hr
  Numbers of viable cells: 180000 mL⁻¹
Daudi lymphoma cells; 500 μM closed, 22 hr
  Numbers of viable cells: 200000 mL⁻¹
Daudi lymphoma cells; 500 μM closed, 68 hr
  Numbers of viable cells: 40000 mL⁻¹
Daudi lymphoma cells; 500 μM open, 4S hr
  Numbers of viable cells: 210000 mL⁻¹
Daudi lymphoma cells; 500 μM open, 22 hr
  Numbers of viable cells: 220000 mL⁻¹
Daudi lymphoma cells; 500 μM open, 68 hr
  Numbers of viable cells: 40000 mL⁻¹
Daudi lymphoma cells; 500 μM, day 1
  number of cells remaining viable: 31 ×10^4
Daudi lymphoma cells; 500 μM, day 2
  number of cells remaining viable: 16 ×10^4
Daudi lymphoma cells; 500 μM, day 3
  number of cells remaining viable: 11 ×10^4
Daudi lymphoma cells; 500 μM, day 4
  number of cells remaining viable: 3 ×10^4
Daudi lymphoma cells; 500 μM, day 5
  number of cells remaining viable: 0 ×10^4
Daudi lymphoma cells; 500 μM, within 3 days
  cell killing: nearly all the cells are dead
Daudi lymphoma cells; 750 μM, day 1
  number of cells remaining viable: 28 ×10^4
Daudi lymphoma cells; 750 μM, day 2
  number of cells remaining viable: 18 ×10^4
Daudi lymphoma cells; 750 μM, day 3
  number of cells remaining viable: 5 ×10^4
Daudi lymphoma cells; 750 μM, day 4
  number of cells remaining viable: 2 ×10^4
Daudi lymphoma cells; 750 μM, day 5
  number of cells remaining viable: 0 ×10^4
Daudi lymphoma cells; 1000 μM closed, 4S hr
  Numbers of viable cells: 30000 mL⁻¹
Daudi lymphoma cells; 1000 μM closed, 22 hr
  Numbers of viable cells: 140000 mL⁻¹
Daudi lymphoma cells; 1000 μM closed, 68 hr
  Numbers of viable cells: 0 mL⁻¹
Daudi lymphoma cells; 1000 μM open, 4S hr
  Numbers of viable cells: 80000 mL⁻¹
Daudi lymphoma cells; 1000 μM open, 22 hr
  Numbers of viable cells: 180000 mL⁻¹
Daudi lymphoma cells; 1000 μM open, 68 hr
  Numbers of viable cells: 20000 mL⁻¹
Daudi lymphoma cells; 1000 μM, within 3 days
  cell killing: kill all the cells
